Data as given in US20230416750A1, “CATALYTIC SEQUENCE BASED METHODS OF TREATING OR PREVENTING BACTERIAL INFECTIONS” (priority 2020, published 2023).
{3CholTEG} = cholesteryl-TEG conjugate

Experiments:
[1] = tested on: HT-29 cells; assay type: cell-based; conditions: HT-29 human colorectal adenocarcinoma cells, 72 hours; read-out: IC50 of toxicity
Procedure: HT-29 cells (ATCC) were seeded in 24-well plates at 200,000 cells per well. DNAzyme were added to the medium at different concentrations. After 72 hours, PrestoBlue reagent (A13262, Life Technologies Ltd.) was added as a cell viability indicator.

[2] = tested on: bla-KPC RNA transcripts; assay: Bla-KPC quantification from bacterial cells (qPCR); assay type: cell-based; conditions: DNAzyme 1.25 μM with sub-toxic meropenem (128 μg/ml), 20 minutes; vs untreated control
Procedure: Total RNA was extracted from each sample using RNeasy Mini Kit (Qiagen), according to the manufacturer's instructions. The concentration, purity, and integrity of total RNA was determined using NanoDrop and gel electrophoresis. cDNA synthesis was performed using iScript™ cDNA synthesis (Bio-Rad) according to the manufacturer's instructions. Equal amounts of total RNA (1000 ng/20 μL) were reverse-transcribed in all samples. Reactions were incubated in a CFX96 Touch Real-Time PCR detection system (Bio-Rad) by the following program: 25° C. for 5 minutes, 46° C. for 20 minutes, 95° C. for 60 seconds. Bla-KPC expression was determined by qPCR, with primers designed using NCBI primer-BLAST. qPCR analysis was performed using the iTaq Universal SYBR Green Supermix (Bio-Rad) according to the manufacturer's instructions, in a CFX96 system by the following program: 95° C. for 3 minutes, 39 cycles of 95° C. for 10 seconds and 55° C. for 30 seconds. Melt curves were generated for each sample by heating PCR amplicons from 65° C. to 95° C. with a gradual increase of 0.5° C./0.5 s.

[3] = tested on: β-lactamase; conditions: DNAzyme 1.25 M (so in the source) with 128 μg/ml meropenem, 1 h; vs untreated control
Procedure: Bacterial strains were streaked from frozen LB+glycerol stocks onto LB agar plates and incubate for 24 hours at 37° C. Single colonies were grown overnight at 37° C. in 3 ml of LB. Cultures were diluted 1:1000 in 2 ml LB supplemented with 128 μg/ml meropenem and DNAzyme were added to a final concentration of 1.25 M. Cultures were incubated at 37° C. with continuous shaking for 1 h. Measurement of the β-lactamase activity assay was done using colorimetric kit (abcam), according to the manufacture's protocol.

[4] = tested on: Klebsiella pneumoniae; assay: Lung ex-vivo infection model (mouse lung punches, CFU); assay type: cell-based; conditions: sub-toxic meropenem alone or with DNAzyme/scramble; 24 hours
Procedure: Lungs were harvested from 5-10 mice (C57BL/6, 6-8 weeks old) and placed in petri dishes containing DMEM 5% FCS. The tissue was divided into circular pieces 3 mm in diameter with a biopsy punch and transferred to poly-propanol tubes with 3 ml DMEM. DMEM was applied with meropenem and DNAzymes, as indicated. To each respective tube 10 μl of mid-logarithmic Klebsiella pneumoniae culture was added—with three technical repeats for each condition. The plates were incubated at 37° C. for approximately 1 days (24 hours), washed twice with PBS.
For CFU of bacteria infecting ex vivo tissue culture: individual punches or their growth media were collected, Punches were resuspended in 1 ml PBS (Biological Industries), and free-living bacteria were pelleted and resuspended in PBS at the same volume. Samples were thoroughly vortexed (5 min). The samples were then mildly manually crushed using 1.5 ml pestle. In all cases, to determine the number of viable cells, samples were serially diluted in PBS, plated on LB plates, and colonies were counted after incubation at 37° C. overnight.

[5] = tested on: Klebsiella pneumoniae (ATCC BAA-1705); assay: KP infected thigh muscle model in neutropenic mice; assay type: in vivo; conditions: SC TID, 240 mg/kg meropenem alone or with KPC-337 16, 24 or 32 mg/kg
Procedure: Neutropenia induction: The experiments were performed on female ICR mice age 9-10 weeks. At day (−4) neutropenia induction was performed by cyclophosphamide intraperitoneal (IP) injection at 150 mg/kg and a volume of 10 mL/kg. At day (−1) neutropenia maintenance was performed by cyclophosphamide IP injection at 100 mg/kg and a volume of 10 mL/kg.
Bacterial suspension preparation: At day (−4) KP (ATCC® BAA-1705™) bacteria was streaked out from −80° C. glycerol stock onto LB medium and incubated at 37° C. for 20 hours and then stored at 2-8° C. At day (−1) single colonies of the KP (ATCC® BAA-1705™ bacteria) were picked by using an inoculation loop (Greiner, 731175) and suspended in 20 mL Tryptic Soy broth (TSB) (Hylabs, BIO-MO11) in Erlenmeyer and incubated at 37° C. overnight (=starter) with shaking at 180 rpm. In the morning of dosing day, bacterial starter was diluted in fresh TSB (total of 20 mL) and incubated for about 1-3 hours at 37° C. […] Bacterial suspension concentration was determined by McFarland (Densicheck plus, Biomerieux) and diluted in sterile PBS to a concentration of 2.2×10^7 CFU/mL. […]
Bacterial burden determination: Homogenate samples dilutions were plated on LB agar plates at various dilutions to determine the colony forming units (CFUs). Plates were incubated overnight (at 37° C.), and bacterial burden was calculated and expressed as CFUs/gram of tissue.

[6] = tested on: Klebsiella pneumoniae strain ATCC BAA-1705; assay: Galleria mellonella virulence assay (larvae viability); assay type: in vivo; conditions: infected G. mellonella larvae
Procedure: Larvae virulence experiments were performed in the facilities of Pharmaseed LTD (Ness Ziona, Israel). G. larvae were obtained from BioSystems Technologies (Exeter, UK) and stored in the shipment boxes at 15° C. for two weeks or at room temperature for immediate use with no requirement of food. Larvae were randomly selected from a large batch for an approximate weight of 250±25 mg. Larvae were separated from sawdust and selected for plumped, lighter colored worms. Darker colored, dehydrated worms, were discarded. Each treatment group (20 larvae per group) contained 10 larvae placed in a 10 cm empty Petri dish (2 dishes per treatment group), on a filter paper.
Bacterial inoculums were prepared from cultures grown overnight at 37° C. in TSB medium (HyLabs, Israel) and washed with sterile 1×PBS. Bacterial suspension concentration was determined by McFarland (Densicheck plus, Biomerieux) and diluted in sterile PBS to receive 10^9 CFU/mL. Serial dilutions of the bacterial suspensions were made and spots were plated on blood agar plates. The plates were incubated at 37° C. and on the next day CFU was counted in order to determine final injected bacterial concentrations.
Each larva was initially injected with 5×10^5 cells into the proleg. A second injection to the proleg was done with meropenem (10 μg/g), meropenem+DNAzyme (8.52 μg/g) or sterile PBS. […]

[7] = tested on: Klebsiella pneumoniae ATCC BAA-1705; assay: Growth assays / MIC / viability (OD600, CFU) with meropenem; assay type: cell-based
Procedure: Cultures were incubated at 37° C. with continuous shaking and the optical density OD600 was recorded every 30 minutes using Ultrospec 10 (biochrom). Viability was tested by serial dilutions (1:100) of the bacterial suspensions and spots were plated on LB plates. The plates were incubated at 37° C. and on the next day CFU was counted to determine culture viability.

Molecule | IC50 [1] [µM] | reduction of transcript levels of bla-KPC [2] | reduction of β-lactamase activity [3] [%] | reduction of capacity of the bacteria to infect and colonize lung tissue (bacterial load in the tissue) [4] | reduction of the free-living cells that remained in the growth media [4] | reduction of bacterial load in the infection site [5] | larvae viability ([6]; sub-toxic meropenem 10 μg/g with DNAzyme (8.52 μg/g)) [%] | growth inhibitory effect (optical density) ([7]; combination of subtoxic meropenem concentration and DNAzyme) | effect on viability of the bacterial cells (cell counts over time) ([7]; combined treatment of meropenem and DNAzyme) | reduction of MIC levels ([7]; meropenem MIC with vs without DNAzyme) | MIC of meropenem ([7]; with addition of DNAzyme KPC-337) [µg/mL] | reduction of the viability of the larvae ([6]; sub-toxic meropenem 10 μg/g alone or with scramble) [%] | MIC ([7]; Klebsiella pneumoniae, ATCCBAA1705, without DNAzyme) [µg/mL]
GCCTGTTGggctagctacaacgaCAGATATTT/3CholTEG/ (GCCTGTTGGGCTAGCTACAACGACAGATATTT; 3' {3CholTEG}, sugars by position and backbone not given here) [KPC-337, DNAzyme targeting bla carbapenemase of Klebsiella pneumoniae] | 20 | two fold | 70 | 1.5-2 fold | 1-1.5 fold change | 2-3 log fold | 100 | complete arrest of growth | bactericidal | two fold | 128 | – | –
C[C@@H](O)[C@H]1C(=O)N2C(C(=O)O)=C(S[C@@H]3CN[C@H](C(=O)N(C)C)C3)[C@H](C)[C@H]12 [meropenem, reference compound] | – | – | – | did not reduced the bacterial load | did not reduced the bacterial load | slightly reduced the bacterial load | – | – | – | – | – | 40 | 256
